Read-outs that look alike come from different tables or passages of the source.
Columns and labels:
[1] = target: T1, trypsin-like activity of the 26S proteasome (Homo sapiens, UniProt Q99436); assay: Proteasome assay, trypsin-like (T-L) activity, SUC-RLR-AMC, Jurkat cell lysate; format: biochemical; details: ± S.D., read-out: Proteasome Inhibition T-L-like IC50
T1 construct: endogenous in cells; host or cells: Jurkat (ATCC TIB-152, E6-1 clone) cell lysate
T1 sequence (Q99436 44-277): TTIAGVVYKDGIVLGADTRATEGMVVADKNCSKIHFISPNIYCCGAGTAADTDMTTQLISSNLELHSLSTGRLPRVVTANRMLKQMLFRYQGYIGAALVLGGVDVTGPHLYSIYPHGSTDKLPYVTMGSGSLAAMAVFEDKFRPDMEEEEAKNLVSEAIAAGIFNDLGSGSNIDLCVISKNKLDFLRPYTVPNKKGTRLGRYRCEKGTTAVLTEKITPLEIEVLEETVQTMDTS
Procedure: (§1) The lysate was stored at −80° C. until the sample was used for the proteasome assay.
(§2) The compounds were diluted with lysis buffer; 10 μL of the compound-containing solution was added to the test wells at ten times the final concentration. […] The results are reported as the average of at least 3 technical replicates of IC50 values for proteasome inhibition.

[2] = target: T2, yeast proteasome yβ5 subunit (Saccharomyces cerevisiae, UniProt P23724+P30656); assay: Subunit selectivity, purified yeast proteasome yβ5; format: biochemical; details: 8 μg/mL purified yCP; ± SD; read-out: yβ5 IC50
T2 construct: measured using 8 μg/mL of purified yCP or iCP
Procedure: as §2
(§3) Values and standard deviations were calculated from an assay performed in biological triplicate.

[3] = target: T3, immunoproteasome iβ5 subunit (Homo sapiens, UniProt P20618+P28062); assay: Subunit selectivity, purified immunoproteasome iβ5; format: biochemical
T3 construct: purchased Enzo Life Sciences
Procedure: as §2, §3

[4] = target: T4, yeast proteasome yβ2 subunit (Saccharomyces cerevisiae, UniProt P25043+P25451); assay: Subunit selectivity, purified yeast proteasome yβ2; format: biochemical; details: 8 μg/mL purified yCP; ± SD; read-out: yβ2 IC50
T4 construct: measured using 8 μg/mL of purified yCP or iCP
Procedure: as §2, §3

RPMI 8226 cells [5] = assay: MTT assay cytotoxicity RPMI 8226; details: read-out: Cytotoxicity RPMI 8226 IC50
Procedure: (§4) The cells were incubated at 37° C. in a humidified atmosphere with 5% CO2.
(§5) 100 μL of cells were added to each well of a 96 well microtiter plate at a concentration of 4×10^4 cells/mL and incubated overnight to allow proper adhesion. (RPMI 8226 cells were plated at 4×10^5 cells/mL). The cells were treated with the panel of test compounds at a series of concentrations, along with vehicle control DMSO and untreated cells as controls. After 48 h incubation, 20 μL of MTT reagent (3-(4,5-dimethylthiazol-2-yl)-2,5-diphenyltetrazolium bromide) in PBS (5 mg/mL) was added to each well of the plates. The plate was incubated for 2 h at 37° C. For adherent cell lines, the media was removed from each well of the plate and the resulting formazan crystals dissolved in 100 μL of DMSO. For RPMI 8226 cells, 200 ul of DMF/SDS mix (50% DMF. 10% w/v SDS pH<4) was used to solubilize the formazan crystals. Optical density (OD) at 490 nm was measured using a microplate reader. Cells treated with 1 μM phenyl arsine oxide (PAO) served as a positive cell-killing control. Technical replicates of these assays were performed in biological quadruplicate, and the three best values were used for analysis in order to eliminate outliers. Data presented are the average IC50 value calculated from at least 3 technical replicates with the corresponding standard deviation.

MCF7 cells [6] = assay: MTT assay cytotoxicity MCF7; details: read-out: Cytotoxicity MCF7 IC50
Jurkat cells [7] = assay: Cell cycle assay (flow cytometry); format: cell-based, human
Procedure: Vybrant® DyeCycle™ Orange Stain was used for the cell cycle assay. The amount of fluorescence of DNA was used as a relative measure of a cell's stage in the cell cycle. 500,000 Jurkat cells were added to wells on a 24 well microtiter plate in 1 mL of supplemented RPMI media. The cells were then treated with Compound 1 (TABLE 2). Using the cells treated for 12 and 24 hours, stained DNA fluorescence was measured via flow cytometry. The cells were taken from each well, pelleted briefly, aspirated, resuspended in 300 μL of 2 μL/mL Vybrant® DyeCycle™ Orange Stain, incubated at 37° C. for 15 minutes, and analyzed by flow cytometry. Selecting whole cells based on forward and side scatter, stained DNA fluorescence was excited at 488 nm and measured at an emission wavelength of 585 nm, using amount of fluorescence as a means of distinguishing between populations of cells. Populations were identified as G1 for the peak associated with the lowest amount of fluorescence, S phase for increased fluorescence appearing as a shoulder off of the G1 peak, and G2/M for approximately 2 times the fluorescence as the G1 peak. Measurements were taken in biological triplicate and confirmed in technical triplicate.

MDA-MB-231 cells [8] = assay: MTT assay cytotoxicity MDA-MB-231; details: read-out: Cytotoxicity MDA-MB-231 IC50
Procedure: as §4, §5

Jurkat cells [9] = assay: Apoptosis assay (Annexin V-FITC, flow cytometry); format: cell-based, human
Procedure: Apoptosis assay: 1 mL of Jurkat cells, at a density of 500,000 cells per milliliter, was added to 12 wells of a 24 well microtiter plate. Cells were treated immediately using a serial dilution of the synthesized proteasome inhibitors, the benzyl ester of Cystargolide B and the belactosin-cystargolide hybrid molecule. 10 μM Paclitaxel and 0.2 μg/mL Doxorubicin hydrochloride were used as positive apoptosis controls and non-treated cells were used as a negative control. The cells were then incubated for 24 h at 37° C. and 5% CO2. The following day, Annexin V-FITC conjugate was used to assay for the expression of phosphatidyl serine on the […] of the cellular membrane. The cells were briefly pelleted, aspirated, and resuspended in 300 μL of a reaction mixture containing 0.2 μL/mL of the Annexin V FITC solution, 2 mM CaCl2 to enable binding, and 2 μg/mL propidium iodide as an indicator of cell permeability. Each sample was incubated at 37° C. for 20 minutes, and then analyzed by flow cytometry. Single, whole cells were selected based on the forward and the side-scatter. With an excitation of 488 nm Annexin V-FITC binding was identified using FL1 533 nm emission. Propidium iodide staining was selected based on FL2 585 nm emission. […] Measurements were taken in biological triplicate for each sample, and the results were confirmed in technical triplicate.

[10] = target: T5, chymotrypsin-like activity of the 26S proteasome (Homo sapiens, UniProt P28074); assay: Proteasome assay, chymotrypsin-like (ChT-L) activity, Suc-LLVY-AMC, Jurkat cell lysate; format: biochemical; details: ± S.D., read-out: Proteasome Inhibition ChT-like IC50
T5 construct: endogenous in cells; host or cells: Jurkat (ATCC TIB-152, E6-1 clone) cell lysate
T5 sequence (P28074 60-263): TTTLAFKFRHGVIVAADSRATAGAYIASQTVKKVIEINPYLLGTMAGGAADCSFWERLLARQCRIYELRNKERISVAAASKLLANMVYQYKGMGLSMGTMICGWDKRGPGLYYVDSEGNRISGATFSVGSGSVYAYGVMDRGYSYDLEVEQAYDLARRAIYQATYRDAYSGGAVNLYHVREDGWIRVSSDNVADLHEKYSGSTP
Procedure: as §1, §2

[11] = target: T6, yeast proteasome yβ1 subunit (Saccharomyces cerevisiae, UniProt P25043+P38624); assay: Subunit selectivity, purified yeast proteasome yβ1; format: biochemical; details: 8 μg/mL purified yCP; ± SD; read-out: yβ1 IC50
T6 construct: measured using 8 μg/mL of purified yCP or iCP
Procedure: as §2, §3

[12] = test system: ubiquitinated proteins in MCF7 cells; assay: Western blot of ubiquitinated proteins; format: cell-based, human
Procedure: The cells were incubated for 9.5 hrs at 37° C. and 5% CO2. After washing with PBS twice, cells were scraped, pelleted and lysed with CytoBuster™ Protein Extraction Reagent \ containing 10 μM compound 8, 10 μM Na3VO4, 0.017 mg/mL Aprotinin, 1 mM PMSF, and 1% Protease Inhibitor Cocktail. Thereafter 30 μg of protein in sample buffer (50 mM Tris-HCl, 2% SDS, 10% Glycerol, 1% β-mercaptoethanol, 12.5 mM EDTA, 0.02% Bromophenol Blue, pH 6.8) that had been boiled at 90° C. for 5 min, was electrophoresed using 6/8% SDS-PAGE, and the protein transferred to a […] PVDF membrane using a BioRad Trans-Blot® SD at 15 V for 17 minutes. The membrane was blocked with 1× casein buffer (Diluted 1:10 in water from casein blocking buffer 10×), and probed with either the polyclonal rabbit anti β-Actin (1:500) or the polyclonal rabbit anti-ubiquitin antibody (1:300), and stained with goat anti-rabbit IgG (H+L) HRP conjugate (1:3000) secondary antibodies. Antibody-recognized bands were visualized by a standard horseradish peroxidase chemiluminescent assay with an ECL kit.

[13] = target: T7, β5 subunit of the 26S yeast proteasome (yCP) (Saccharomyces cerevisiae, UniProt P23724+P30656); assay: Protein-drug co-crystal structure; format: binding; details: X-ray crystallography
T7 construct: measured using 8 μg/mL of purified yCP or iCP
Procedure: The binding mode of compound 11a in the yeast proteasome was examined. The yeast proteasome (yCP) has high homology with mammalian proteasomes but is easier to crystallize. Compound 11a was incubated at a high concentration with active yCP, and the enzyme-inhibitor complex was analyzed using X-ray crystallography.
Compound 11a is positioned in a kinked β-sheet-like conformation that is stabilized by hydrogen bonding with Thr21 and Gly47. The PI is further stabilized by the hydrophobic interaction of P3, whereas P2 and P4 lack any direct interactions within the binding pocket. The PI prevents the regeneration of the Thr1 catalytic site by complexing the water molecule generated by the hydrolysis of the β-lactone. The water molecule is stabilized in the binding pocket by residues Thr1, Ser131, and the hydroxyl group of the hydrolyzed lactone. […] The biological effects of P2 and P4 can be attributed to the pharmacokinetics of the cystargolide scaffold instead of binding to the β5 subunit of the proteasome.

[14] = target: T8, ChT-L activity of 26S proteasomes in intact MCF-7 cells (Homo sapiens, UniProt P28074); assay: Cell infiltration of PIs: proteasome inhibition in intact MCF7 cells; format: cell-based; details: intact versus lysed MCF-7 cells, 1 h
T8 construct: endogenous in cells; host or cells: MCF7 cells (treated intact, then lysed)
T8 sequence (P28074 60-263): T5 sequence (P28074 60-263)
Procedure: 100 μL MCF7 cells at a concentration of 500,000 cells/mL were added to a 96 well microtiter plate and incubated overnight at 37° C. and 5% CO2 to allow cells to adhere at 100% confluency. The cells were treated and then incubated for at 37° C. and 5% CO2 for 1 hour as a standard time to allow for drug infiltration. […] The plate was rocked on ice for 1 hr and then 90 μL of cell lysate was transferred to a black 96 well microtiter plate. 10 μL of lysis buffer was added to the top of all wells containing treated cells and one set of control wells. 10 μL of 1 mM of compound 8 was added to the second set of control wells as a positive control for proteasome inhibition. The plate was then incubated at 37° C. for 15 minutes to allow for control drug binding. Chymotrypsin-like activity was then measured by adding 10 μL of 100 μM Suc-LLVY-AMC in lysis buffer to each well and then incubating for 1 h at 37° C. […] Standard deviation for cell infiltration was calculated by propagating the error from the two IC50 values.
The difference between proteasome inhibition within intact versus lysed cells was evaluated as a representative measure of PIs ability to infiltrate cells and access intracellular proteasomes. […] Assays were performed in biological triplicate, and the data points are reported with the corresponding standard deviations. […]

MDA-MB-231 cells [15] = test system: MDA-MB-231 cells
Procedure: as §4, §5

MCF7 cells [16] = test system: MCF7 cells
RPMI 8226 cells [17] = test system: RPMI 8226 cells
Procedure: as §4, §5

[18] = test system: cancer cells (MCF7, MDA-MB-231, RPMI 8226)
Procedure: as §5

CC(C)[C@H](NC(=O)[C@@H]1OC(=O)[C@H]1C(C)C)C(=O)N[C@H](C(=O)OCc1ccccc1)C(C)C [Compound 1] was tested. Which IC50 ([1]; Table 2, P1 analogues) did it give?
The IC50 was 1950 ± 901 nM.

And the IC50 [2]?
The IC50 was 37.2 ± 4.5 nM.

And the IC50 [3]?
The IC50 was 44.7 ± 12.8 nM.

What about the IC50 [4] of the same compound?
The IC50 was 14600 ± 910 nM.

And the IC50 (RPMI 8226 cells [5]; Homo sapiens, RPMI-8226, 48 h)?
Its IC50 is 1310 ± 745 nM.

And the IC50 (MCF7 cells [6]; Homo sapiens, MCF7, 48 h)?
The IC50 was 8090 ± 4270 nM.

What about the cell cycle arrest (Jurkat cells [7]) of the same compound?
Its cell cycle arrest is “cell cycle arrest in the G2/M phase”.

What about the IC50 (MDA-MB-231 cells [8]; Homo sapiens, MDA-MB-231, 48 h) of the same compound?
The IC50 was 2790 ± 464 nM.

What about the induction of apoptosis (Jurkat cells [9]) of the same compound?
The induction of apoptosis was “induction of apoptosis”.

What about the IC50 ([10]; Table 2, P1 analogues) of the same compound?
Its IC50 is 8.9 ± 6.2 nM.

What about the IC50 [11] of the same compound?
The IC50 was 4180 ± 438 nM.

And the “accumulation of ubiquitinated proteins” value [12]?
Its value is “accumulation of ubiquitinated proteins”.

C=CCOC(=O)[C@@H](NC(=O)[C@@H](NC(=O)[C@@H]1OC(=O)[C@H]1[C@@H](C)CC)C(C)C)C(C)C [Compound 11a, Allyl((2R,3S)-3-((S)-sec-butyl)-4-oxooxetane-2-carbonyl)-L-valyl-L-valinate] was tested. Which IC50 [2] did it give?
The IC50 was 19.5 ± 0.8 nM.

And the IC50 ([3]; 8 μg/mL purified iCP, ± SD, read-out: iβ5 IC50)?
The IC50 was 41.2 ± 15.2 nM.

And the IC50 [4]?
The IC50 was over 10000 nM.

What about the IC50 (RPMI 8226 cells [5]; Table 4, MTT, 48 h) of the same compound?
Its IC50 is 94 ± 15 nM.

And the IC50 (MCF7 cells [6]; Table 4, MTT, 48 h)?
Its IC50 is 311 ± 82 nM.

What about the “binding mode in the crystal structure” value [13] of the same compound?
Its value is “binds covalently to Thr1Oγ at the active site of subunit β5 of the yCP”.

And the IC50 (MDA-MB-231 cells [8]; Table 4, MTT, 48 h)?
The IC50 was 275 ± 112 nM.

What about the IC50 ([10]; Table 4, P4 analogues) of the same compound?
Its IC50 is 11.6 ± 2.8 nM.

And the IC50 [11]?
The IC50 was 779 ± 42 nM.

Which IC50 ([1]; Table 2, P1 analogues) does the source give for CC(C)[C@H](NC(=O)[C@@H]1OC(=O)[C@H]1C1CC1)C(=O)N[C@H](C(=O)OCc1ccccc1)C(C)C [Compound 9a, Benzyl ((2R,3S)-3-cyclopropyl-4-oxooxetane-2-carbonyl)-L-valyl-L-valinate] here?
The IC50 was 2480 ± 433 nM.

What about the IC50 (RPMI 8226 cells [5]; Homo sapiens, RPMI-8226, 48 h) of the same compound?
The IC50 was 72000 ± 13800 nM.

And the IC50 (MCF7 cells [6]; Homo sapiens, MCF7, 48 h)?
The IC50 was over 100000 nM.

What about the IC50 (MDA-MB-231 cells [8]; Homo sapiens, MDA-MB-231, 48 h) of the same compound?
The IC50 was over 100000 nM.

And the IC50 ([10]; Table 2, P1 analogues)?
Its IC50 is 12.2 ± 5.6 nM.

And the “cellular infiltration / ability to inhibit intracellular proteasomes (in words)” value [14]?
Its value is “lowest performance”.

Which results are given for CC[C@H](C)[C@@H]1C(=O)O[C@H]1C(=O)N[C@H](C(=O)N[C@@H](CC(C)C)C(=O)OCc1ccccc1)C(C)C [Compound 10i, Benzyl((2R,3S)-3-((S)-sec-butyl)-4-oxooxetane-2-carbonyl)-L-valyl-L-leucinate]?
IC50 ([1]; Table 3, P2/P3 analogues): 1350 ± 172 nM; IC50 (MDA-MB-231 cells [15]): 287 ± 136 nM; IC50 (MCF7 cells [16]): 351 ± 31 nM; IC50 (RPMI 8226 cells [17]): 156 ± 96 nM; cytotoxicity IC50 for all three cell lines tested (in words) [18]: midrange nanomolar; IC50 ([10]; Table 3, P2/P3 analogues): 7.8 ± 1.6 nM
